Test results published in US8999957B2, “Heterocyclic compounds as ERK inhibitors” (Merck Sharp & Dohme Corp., priority 2010, dated 2015).
pIC50: −log10 of the molar value.

Molecular target: fully phosphorylated, active Mouse ERK2 protein (Mus musculus (Mouse), UniProt P63085)
Experiment: Active ERK2 (aERK) IMAP assay, condition 1
Type: biochemical
Details: aERK assay condition 1, 30 μM ATP
Procedure: Active ERK2 (aERK) Assay: (Unless Indicated Otherwise, the Data Provided for aERK was obtained using Condition 1)
Activated ERK2 activity was also determined in the IMAP assay format using the procedure outlined above. […] Reactions proceeded for 30 minutes before termination by addition of 60 μl IMAP detection beads in binding buffer. Plates were read as above after 30 minute binding equilibration.

Sequence of fully phosphorylated, active Mouse ERK2 protein (P63085 whole entry): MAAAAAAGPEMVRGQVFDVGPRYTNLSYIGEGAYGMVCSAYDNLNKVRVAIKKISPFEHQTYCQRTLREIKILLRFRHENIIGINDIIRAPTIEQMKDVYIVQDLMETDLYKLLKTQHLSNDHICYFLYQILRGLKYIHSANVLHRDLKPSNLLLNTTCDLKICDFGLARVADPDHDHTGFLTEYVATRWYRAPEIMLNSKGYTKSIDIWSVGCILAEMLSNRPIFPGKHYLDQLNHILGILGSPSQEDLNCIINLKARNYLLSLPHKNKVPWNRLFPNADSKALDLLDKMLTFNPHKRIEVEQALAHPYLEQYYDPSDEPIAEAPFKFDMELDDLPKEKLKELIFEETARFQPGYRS

pIC50 | SMILES
7.38 | COc1cccc(F)c1CN1CCC(O)C(NC(=O)c2ccc3[nH]nc(-c4ccc5nccn5c4)c3c2)C1 (centres unmarked)
7.21 | COc1cccc(F)c1CN1C[C@@H](C)C[C@@H](NC(=O)c2ccc3[nH]nc(-c4nc5ccccc5s4)c3c2)C1
6.74 | COc1cccc(F)c1CN1C[C@H](NC(=O)c2ccc3[nH]nc(-c4ccc5nccn5c4)c3c2)C[C@@H](C(F)(F)F)C1
7.32 | O=C(N[C@@H]1CC[C@@H](C(=O)NCc2ccccc2)N(Cc2ccccc2)C1)c1ccc2[nH]nc(-c3ccncc3)c2c1 [drawing 352]
7.15 | CCc1nnc2ccc(-c3n[nH]c4ccc(C(=O)N[C@@H]5CCCN(Cc6c(F)cccc6OC)C5)cc34)cn12
7.57 | COc1cccc(F)c1CN1CC(NC(=O)c2ccc3[nH]nc(-c4ccnc(C)c4)c3c2)CCC1C (centres unmarked)
7.10 | O=C(NC1CCCCN(Cc2ccccc2F)C1)c1ccc2[nH]nc(-c3ccncc3)c2c1 (centres unmarked)
6.52 | CC(C)Oc1ccc(-c2n[nH]c3ccc(C(=O)N[C@@H]4CN(C)CC[C@H]4c4ccccc4)cc23)cc1
6.43 | O=C(N[C@@H]1CC[C@H](C(=O)NCc2ccccc2)NC1)c1ccc2[nH]nc(-c3ccncc3)c2c1
8.01 | O=C(NC1COCCN(CCc2ccccc2F)C1)c1ccc2[nH]nc(-c3ccncc3)c2c1 (centres unmarked)
6.53 | COc1cccc(F)c1CN1CCC[C@@H](NC(=O)c2ccc3[nH]nc(-c4nc5ccccc5s4)c3c2)C1
7.65 | COc1cccc(F)c1CN1CCC[C@@H](NC(=O)c2ccc3[nH]nc(-c4ccc5nc(C)nn5c4)c3c2)C1
6.89 | COc1cccc(F)c1CN1C[C@@H](C)C[C@@H](NC(=O)c2ccc3[nH]nc(-c4ccc5nonc5c4)c3c2)C1
8.19 | COc1cccc(F)c1CN1CCC[C@@H](NC(=O)c2ccc3[nH]nc(-c4ccc5nncn5c4)c3c2)C1
6.52 | [2H]C([2H])([2H])N1CC[C@@H](c2ccccc2)[C@H](NC(=O)c2ccc3[nH]nc(-c4ccc(OC(C)C)cc4)c3c2)C1
8.86 | CN1CC(Cc2c(F)cccc2F)CC(NC(=O)c2ccc3[nH]nc(-c4ccc5nn(C)cc5c4)c3c2)C1 (centres unmarked)

pIC50 | SMILES
6.83 | O=C(NC1CCCCN(Cc2c(F)cccc2F)C1)c1ccc2[nH]nc(-c3ccncc3)c2c1 (centres unmarked)
6.76 | COc1cccc(F)c1CN1CCC[C@@H](NC(=O)c2ccc3[nH]nc(-c4ccc5nsnc5c4)c3c2)C1
8.80 | CN1C[C@H](Cc2c(F)cccc2F)C[C@H](NC(=O)c2ccc3[nH]nc(-c4ccn5ccnc5c4)c3c2)C1
7.14 | O=C(NC1CCCCN(CCCc2ccccc2)C1)c1ccc2[nH]nc(-c3ccncc3)c2c1 (centres unmarked)
7.07 | COc1cccc(F)c1CN1CCC2CC2(NC(=O)c2ccc3[nH]nc(-c4ccc5nccn5c4)c3c2)C1 (centres unmarked)
8.35 | COc1cccc(F)c1CN1C[C@H](NC(=O)c2ccc3[nH]nc(-c4ccc5nccn5c4)c3c2)C[C@H](C(F)(F)F)C1 [drawing 377]
7.30 | CC(C)Oc1ccc(-c2n[nH]c3ccc(C(=O)N[C@@H]4CNCC[C@H]4c4ccccc4)cc23)cc1
7.31 | COc1cccc(F)c1CN1CC(NC(=O)c2ccc3[nH]nc(-c4ccc5nccn5c4)c3c2)CCC1C1CC1 (centres unmarked)
7.75 | COc1cccc(F)c1CN1C[C@H](NC(=O)c2ccc3[nH]nc(-c4ccc5nccn5c4)c3c2)C[C@H](C(F)(F)F)C1 [drawing 317]
7.16 | COc1cccc(F)c1CN1C[C@H](NC(=O)c2ccc3[nH]nc(-c4ccc5nccn5c4)c3c2)CCC1=O
6.70 | O=C(NC12CC1CCN(Cc1ccccc1)C2)c1ccc2[nH]nc(-c3ccc4nccn4c3)c2c1 (centres unmarked)
6.52 | CC(C)(C)OC(=O)N1CC[C@@H](c2ccccc2)[C@H](NC(=O)c2ccc3[nH]nc(-c4ccc5c(c4)CCO5)c3c2)C1
6.72 | CCOC(=O)C1CCN(Cc2ccccc2)CC1NC(=O)c1ccc2[nH]nc(-c3ccncc3)c2c1 (centres unmarked)
6.64 | Cn1cnnc1CN1CCC[C@@H](NC(=O)c2ccc3[nH]nc(-c4ccncc4)c3c2)C1
7.64 | O=C(N[C@@H]1CNCC[C@H]1c1ccccc1)c1ccc2[nH]nc(-c3ccc4c(c3)CCO4)c2c1

SMILES | pIC50
Cc1cc(-c2n[nH]c3ccc(C(=O)NC4CC[C@H]5CC[C@@H]4N5Cc4ccccc4F)cc23)ccn1 (some centres unmarked) | 8.04
